Data published in ChEMBL document CHEMBL4680251, “Discovery of a 2-pyridinyl urea-containing compound YD57 as a potent inhibitor of apoptosis signal-regulating kinase 1 (ASK1)” (Eur J Med Chem, 2020).
Activity calls are given as the source filed them. The calls are words filed in the database; no cut-off is given here.

Experiments:
[1] = target: T1, Mitogen-activated protein kinase kinase kinase 7 (Homo sapiens, UniProt O43318); assay: Inhibition of TAK1 (unknown origin)
T1 sequence (O43318 whole entry): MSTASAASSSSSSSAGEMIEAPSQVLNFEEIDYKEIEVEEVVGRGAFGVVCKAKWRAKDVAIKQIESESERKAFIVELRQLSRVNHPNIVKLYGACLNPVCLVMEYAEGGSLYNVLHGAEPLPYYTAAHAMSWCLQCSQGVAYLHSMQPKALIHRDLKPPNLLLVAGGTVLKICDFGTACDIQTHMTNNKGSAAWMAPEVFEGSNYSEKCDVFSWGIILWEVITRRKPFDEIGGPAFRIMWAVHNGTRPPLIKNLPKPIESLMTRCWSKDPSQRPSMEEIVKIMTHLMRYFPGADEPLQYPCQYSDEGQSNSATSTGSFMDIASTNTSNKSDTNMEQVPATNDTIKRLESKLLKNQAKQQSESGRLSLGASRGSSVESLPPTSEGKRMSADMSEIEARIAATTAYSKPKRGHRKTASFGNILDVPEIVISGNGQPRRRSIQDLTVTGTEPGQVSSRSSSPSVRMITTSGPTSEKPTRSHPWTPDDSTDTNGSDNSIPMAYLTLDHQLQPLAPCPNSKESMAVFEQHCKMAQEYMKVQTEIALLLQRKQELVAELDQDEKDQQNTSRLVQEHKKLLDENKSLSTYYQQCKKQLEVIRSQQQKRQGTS

[2] = target: T2, Mitogen-activated protein kinase kinase kinase 6 (Homo sapiens, UniProt O95382); assay: Inhibition of ASK2 (unknown origin)
T2 sequence (O95382 whole entry): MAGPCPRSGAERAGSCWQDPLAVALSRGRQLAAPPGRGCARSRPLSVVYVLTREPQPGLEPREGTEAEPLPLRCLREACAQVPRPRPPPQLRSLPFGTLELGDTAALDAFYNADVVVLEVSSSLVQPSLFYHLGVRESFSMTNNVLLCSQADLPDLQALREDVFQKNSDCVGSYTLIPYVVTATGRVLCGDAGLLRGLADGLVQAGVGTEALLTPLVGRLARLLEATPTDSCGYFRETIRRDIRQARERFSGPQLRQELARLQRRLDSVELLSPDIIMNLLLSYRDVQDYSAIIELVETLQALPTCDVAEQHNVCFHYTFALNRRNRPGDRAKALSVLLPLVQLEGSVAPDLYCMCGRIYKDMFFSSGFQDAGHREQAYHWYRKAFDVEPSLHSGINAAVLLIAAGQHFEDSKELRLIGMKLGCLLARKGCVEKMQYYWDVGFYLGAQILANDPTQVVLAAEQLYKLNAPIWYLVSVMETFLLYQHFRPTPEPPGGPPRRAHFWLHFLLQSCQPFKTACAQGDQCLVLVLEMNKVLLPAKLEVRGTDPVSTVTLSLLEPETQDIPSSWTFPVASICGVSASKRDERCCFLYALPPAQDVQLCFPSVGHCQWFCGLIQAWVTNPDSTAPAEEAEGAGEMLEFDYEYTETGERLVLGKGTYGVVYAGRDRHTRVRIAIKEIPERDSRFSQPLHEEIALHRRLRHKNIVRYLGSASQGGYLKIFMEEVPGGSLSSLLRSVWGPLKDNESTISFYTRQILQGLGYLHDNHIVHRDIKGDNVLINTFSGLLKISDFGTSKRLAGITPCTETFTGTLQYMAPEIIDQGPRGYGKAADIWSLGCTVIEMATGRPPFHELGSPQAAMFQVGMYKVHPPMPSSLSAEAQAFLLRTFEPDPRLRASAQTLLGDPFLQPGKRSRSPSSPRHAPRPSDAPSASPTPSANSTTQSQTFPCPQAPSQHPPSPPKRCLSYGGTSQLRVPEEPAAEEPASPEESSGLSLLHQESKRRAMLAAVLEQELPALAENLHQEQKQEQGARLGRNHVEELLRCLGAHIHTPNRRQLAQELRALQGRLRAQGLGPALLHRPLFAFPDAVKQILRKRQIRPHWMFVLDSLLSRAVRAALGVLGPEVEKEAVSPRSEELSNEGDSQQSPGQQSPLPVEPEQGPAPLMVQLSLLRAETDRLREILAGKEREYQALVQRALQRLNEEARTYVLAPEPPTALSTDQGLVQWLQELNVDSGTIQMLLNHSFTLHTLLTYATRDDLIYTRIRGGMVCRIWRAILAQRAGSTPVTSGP

[3] = target: T3, Mitogen-activated protein kinase kinase kinase 5 (Homo sapiens, UniProt Q99683); assay: Inhibition of ASK1 (unknown origin)
T3 sequence (Q99683 whole entry): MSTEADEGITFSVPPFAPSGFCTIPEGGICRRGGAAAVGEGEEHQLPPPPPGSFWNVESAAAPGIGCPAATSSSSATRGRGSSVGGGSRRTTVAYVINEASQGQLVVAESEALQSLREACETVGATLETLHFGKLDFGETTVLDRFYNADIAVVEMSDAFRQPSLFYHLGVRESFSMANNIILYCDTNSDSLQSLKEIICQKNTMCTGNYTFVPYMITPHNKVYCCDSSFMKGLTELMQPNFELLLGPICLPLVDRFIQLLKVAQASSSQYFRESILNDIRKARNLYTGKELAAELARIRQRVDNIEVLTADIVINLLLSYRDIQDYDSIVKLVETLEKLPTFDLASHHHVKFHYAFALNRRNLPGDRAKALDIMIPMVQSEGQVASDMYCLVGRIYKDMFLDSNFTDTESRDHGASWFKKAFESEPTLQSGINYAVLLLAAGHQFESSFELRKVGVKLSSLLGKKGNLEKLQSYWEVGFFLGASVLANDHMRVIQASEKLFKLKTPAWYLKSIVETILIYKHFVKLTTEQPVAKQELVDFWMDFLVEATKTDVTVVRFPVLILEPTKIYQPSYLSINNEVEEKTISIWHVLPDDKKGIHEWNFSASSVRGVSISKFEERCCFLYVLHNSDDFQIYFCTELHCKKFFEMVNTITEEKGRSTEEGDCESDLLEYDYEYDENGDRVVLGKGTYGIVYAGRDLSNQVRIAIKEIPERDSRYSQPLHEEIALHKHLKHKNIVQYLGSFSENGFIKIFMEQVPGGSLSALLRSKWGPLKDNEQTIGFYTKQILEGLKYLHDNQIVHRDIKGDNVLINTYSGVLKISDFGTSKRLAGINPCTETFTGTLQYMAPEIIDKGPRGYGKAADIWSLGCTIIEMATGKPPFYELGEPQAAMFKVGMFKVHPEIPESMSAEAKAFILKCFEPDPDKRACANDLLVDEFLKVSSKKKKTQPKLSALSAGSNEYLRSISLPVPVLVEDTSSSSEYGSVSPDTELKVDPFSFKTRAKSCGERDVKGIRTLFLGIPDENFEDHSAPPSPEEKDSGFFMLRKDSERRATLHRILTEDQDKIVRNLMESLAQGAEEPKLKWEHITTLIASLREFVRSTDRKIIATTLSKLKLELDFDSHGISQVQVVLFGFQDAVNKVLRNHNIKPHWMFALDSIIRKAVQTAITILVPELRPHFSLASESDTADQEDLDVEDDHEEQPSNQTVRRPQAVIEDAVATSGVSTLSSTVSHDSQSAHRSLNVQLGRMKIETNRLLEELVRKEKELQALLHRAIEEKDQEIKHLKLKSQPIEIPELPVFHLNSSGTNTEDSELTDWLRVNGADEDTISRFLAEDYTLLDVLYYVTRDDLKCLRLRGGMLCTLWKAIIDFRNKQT

[4] = Inhibition of human full length recombinant CDK9/cyclin T1 using KTFCGTPEYLAPE as substrate incubated for 40 mins in presence of [gamma-33ATP] by radiometric scintillation counting analysis
HepG2 [5] = assay: Induction of cell cycle arrest in human HepG2 cells assessed as accumulation at G0/G1 phase at 0.5 to 8 uM incubated for 24 hrs by propidium iodide staining based flow cytometry; type: functional; conditions: dose 0.5-8 µM
HepG2 [6] = assay: Induction of cell cycle arrest in human HepG2 cells assessed as accumulation at G0/G1 phase at 16 uM incubated for 24 hrs by propidium iodide staining based flow cytometry (reference value: 38.34%); type: functional

Row | SMILES | IC50 [1] [nM] | IC50 [2] [nM] | IC50 [3] [nM] | other results
1 | CC(C)n1cnnc1-c1cccc(NC(=O)Nc2cc3ccccn3n2)n1 | > 10000 | 4990 | 85.3 | 
2 | CC(C)n1cnnc1-c1cccc(NC(=O)Nc2cccnc2)n1 |  |  | 1210 | 
3 | CC(C)n1cnnc1-c1cccc(NC(=O)Nc2ccccn2)n1 | 734 | 1090 | 43.4 | 
4 | CC(C)n1cnnc1-c1cccc(NC(=O)Nc2ccc(-c3ccn(C)n3)cn2)n1 | 2220 | 2780 | 64.2 | 
5 | CC(C)n1cnnc1-c1cccc(N(C)C(=O)N(C)c2cc3ccccn3n2)n1 |  |  | 6640 | 
6 | CC(C)n1cnnc1-c1cccc(NC(=O)Nc2ccc3ccccc3n2)n1 | 4560 | 2340 | 69.1 | 
7 | CN[C@@H]1C[C@H]2O[C@@](C)([C@@H]1OC)n1c3ccccc3c3c4c(c5c6ccccc6n2c5c31)C(=O)NC4 [STAUROSPORINE] |  |  |  | IC50 [4]: 60.1 nM
8 | CCc1cc(NC(=O)Nc2cccc(-c3nncn3C(C)C)n2)[nH]n1 |  |  | 153 | 
9 | CC(C)n1cnnc1-c1cccc(NC(=O)Nc2ncnc3ccccc23)n1 | 421 | 1480 | 71 | 
10 | CC(C)n1cnnc1-c1cccc(NC(=O)Nc2cnc3ccccn23)n1 |  |  | > 10000 | 
11 | CC(C)n1cnnc1-c1cccc(NC(=O)Nc2cnn3ccccc23)n1 |  |  | 3650 | 
12 | C[C@H](CO)n1cnnc1-c1cccc(NC(=O)Nc2cnc3ccccc3n2)n1 | > 10000 | > 10000 | 114 | 
13 | C[C@H](CO)n1cnnc1-c1cccc(NC(=O)Nc2ccc3ccccc3n2)n1 | 1880 | 2860 | 47.4 | 
14 | C[C@H](CO)n1cnnc1-c1cccc(NC(=O)Nc2ncc3ccccc3n2)n1 | 5770 | 7170 | 81 | 
15 | CC(C)n1cnnc1-c1cccc(NC(=O)Nc2cnccn2)n1 |  |  | 90.3 | 
16 | CC(C)OC(=O)Nc1cccc(-c2nncn2C(C)C)n1 |  |  | 473 | 
17 | CC(C)n1cnnc1-c1cccc(NC(=O)Nc2cc(C3CC3)nn2C)n1 |  |  | > 10000 | 
18 | Cc1cc(F)c(C(=O)Nc2cccc(-c3nncn3C(C)C)n2)cc1-n1cnc(C2CC2)c1 |  |  |  | Activity (HepG2 [5]): inactive; Activity (HepG2 [6]): Active
19 | CC(C)n1cnnc1-c1cccc(NC(=O)Nc2ccc(-c3cnn(C)c3)cn2)n1 |  |  | 64.2 | 
20 | CC(C)n1cnnc1-c1cccc(NC(=O)Nc2cccc(-c3cnn(C)c3)c2)n1 |  |  | 2120 | 
21 | CC(C)n1cnnc1-c1cccc(NC(=O)Oc2ccccc2)n1 |  |  | > 10000 | 
22 | CC(C)n1cnnc1-c1cccc(NC(=O)Nc2nc3ccccc3[nH]2)n1 |  |  | 111 | 

Row | SMILES | IC50 [1] [nM] | IC50 [2] [nM] | IC50 [3] [nM] | other results
23 | CC(C)n1cnnc1-c1cccc(NC(=O)Nc2ccc(-c3cnn(C)c3)cc2)n1 |  |  | 245 | 
24 | CC(C)c1cc(NC(=O)Nc2cccc(-c3nncn3C(C)C)n2)[nH]n1 |  |  | 393 | 
25 | CC(C)n1cnnc1-c1cccc(NC(=O)Nc2cncc3ccccc23)n1 |  |  | > 10000 | 
26 | C[C@H](CO)n1cnnc1-c1cccc(NC(=O)Nc2nccc3ccccc23)n1 | 63.7 | 264 | 37.9 | 
27 | CC(C)n1cnnc1-c1cccc(NC(=O)Nc2ncc3ccccc3n2)n1 | 4220 | 2910 | 65.7 | 
28 | CC(C)n1cnnc1-c1cccc(NC(=O)Nc2ccncc2)n1 |  |  | 337 | 
29 | CC(C)n1cnnc1-c1cccc(NC(=O)OCc2ccccc2)n1 |  |  | 1520 | 
30 | Cc1cc(NC(=O)Nc2cccc(-c3nncn3C(C)C)n2)n(C)n1 |  |  | 4140 | 
31 | CC(C)n1cnnc1-c1cccc(NC(=O)Nc2ncc3[nH]cnc3n2)n1 | 1210 | 742 | 32.6 | 
32 | Cc1cc(NC(=O)Nc2cccc(-c3nncn3C(C)C)n2)[nH]n1 |  |  | 142 | 
33 | CC(C)n1cnnc1-c1cccc(NC(=O)Nc2ccn[nH]2)n1 |  |  | 66.7 | 
34 | CC(C)n1cnnc1-c1cccc(NC(=O)Nc2cnn(C)c2)n1 |  |  | 1860 | 
35 | CC(C)n1cnnc1-c1cccc(NC(=O)NCc2ccccc2)n1 |  |  | 7020 | 
36 | CC(C)n1cnnc1-c1cccc(NC(=O)Nc2cnc3ccccc3n2)n1 | 6800 | 4860 | 58 | 
37 | CC(C)n1cnnc1-c1cccc(NC(=O)Nc2nn(C)c3ccccc23)n1 |  |  | 259 | 
38 | CC(C)n1cnnc1-c1cccc(NC(=O)Nc2ccnc3ccccc23)n1 |  |  | 3260 | 
39 | CC(C)n1cnnc1-c1cccc(NC(=O)Nc2cc3ccccc3cn2)n1 | 1360 | 1590 | 50.6 | 
40 | Cc1cc(NC(=O)Nc2cccc(-c3nncn3C(C)C)n2)nn1C |  |  | 143 | 
41 | CC(C)n1cnnc1-c1cccc(NC(=O)N(C)c2ccc3ccccc3n2)n1 |  |  | 319 | 
42 | CC(C)n1cnnc1-c1cccc(NC(=O)Nc2nccc3ccccc23)n1 | 85.2 | 201 | 48.5 | 
43 | CC(C)n1cnnc1-c1cccc(NC(=O)Nc2cc(C3CC3)n[nH]2)n1 |  |  | 124 | 
44 | CC(C)n1cnnc1-c1cccc(NC(=O)Nc2ccccc2)n1 |  |  | 2840 | 
